Test results published in patent publication US12029814B1, “Formulation of ear drops and methods for delivery thereof for treating upper respiratory infections” (priority 2023, dated 2024).

Tests used:
Assay type in all cases: cell-based
[1] = test system: original WA1 viral strain of SARS-COV-2; assay: in vitro infectivity of epithelial cells expressing ACE-2 and TMPRSS-2, virus-NP protein in culture media; conditions: MOI 0.01
[2] = test system: SARS-COV-2 BA.1
[3] = test system: SARS-COV-2 BA.2
[4] = test system: SARS-COV-2 BA.5
[5] = test system: SARS-COV-2 XBB1.5
[6] = test system: SARS-COV-2 XBB

hemin
SARS-COV-2 infection, original WA1 viral strain [1]: markedly suppressed
cellular protection against SARS-COV-2 BA.1 infection [2]: protected cells
inhibition of SARS-COV-2 BA.1 (dose response) [2]: dose-dependent inhibition
replication of SARS-COV-2 BA.2 [3]: significantly suppressed replication
replication of SARS-COV-2 BA.5 [4]: significantly suppressed replication
replication of SARS-COV-2 XBB1.5 [5]: significantly suppressed replication
replication of SARS-COV-2 XBB [6]: significantly suppressed replication
